Active and inactive are the calls of the source. No cut-off for these calls is given here.
Legend:
HepG2 [1] = test: Antiproliferative activity against human HepG2 cells after 48 hrs by MTT assay; format: functional, cell-based; details: HepG2, 48 h
HCT-116 = test: Antiproliferative activity against human HCT116 cells after 48 hrs by MTT assay; format: functional, cell-based; details: HCT-116, 48 h
K562 = test: Antiproliferative activity against human K562 cells after 48 hrs by MTT assay; format: functional, cell-based; details: K562, 48 h
SMMC-7721 [2] = test: Antiproliferative activity against human SMMC7721 cells after 48 hrs by MTT assay; format: functional, cell-based; details: SMMC-7721, 48 h
SMMC-7721 [3] = test: Inhibition of cell migration in human SMMC7721 cells at 2.5 to 7.5 uM incubated for 24 to 48 hrs by cell wound scratch assay; format: functional, cell-based
HepG2 [4] = test: Induction of autophagy in human HepG2 cells assessed as decrease in p62 levels in presence of antioxidant NAC by Western blot analysis; format: functional, cell-based
HepG2 [5] = test: Induction of ROS generation in human HepG2 cells after 24 hrs by H2DCFDA staining-based HCS analysis; format: functional, cell-based
[6] = Stability of the compound after 24 hrs by 1H NMR spectroscopic method; format: physicochemical
CT26 [7] = test: Antimetastatic activity against mouse CT26 cells implanted in BALB/c mouse assessed as reduction in lung metastatic nodules at 0.75 mg/kg, iv administered via tail vein for 9 days; format: functional, organism-based
HepG2 [8] = test: Inhibition of cell migration in human HepG2 cells at 2.5 to 7.5 uM incubated for 24 to 48 hrs by cell wound scratch assay; format: functional, cell-based
SMMC-7721 [9] = test: Induction of ROS generation in human SMMC7721 cells after 24 hrs by H2DCFDA staining-based HCS analysis; format: functional, cell-based
Mus musculus [10] = test: Toxicity in Swiss mouse xenografted with mouse H22 cells assessed as effect on kidney weight at 0.75 mg/kg/day, iv administered via tail vein for 7 days; format: organism-based; details: in vivo, 168 h
MCF7 = test: Antiproliferative activity against human MCF7 cells after 48 hrs by MTT assay; format: functional, cell-based; details: MCF7, 48 h
SMMC-7721 [11] = test: Induction of autophagy in human SMMC7721 cells assessed as upregulation of ATG5 expression level up to 10 uM after 24 to 48 hrs by Western blot analysis; format: functional, cell-based
SMMC-7721 [12] = test: Induction of ROS generation in human SMMC7721 cells at 10 uM after 24 hrs in presence of antioxidant NAC by H2DCFDA staining-based flow cytometry; format: functional, cell-based
Mus musculus [13] = test: Toxicity in Swiss mouse xenografted with mouse H22 cells assessed as effect on spleen weight at 0.75 mg/kg/day, iv administered via tail vein for 7 days; format: organism-based; details: in vivo, 168 h
Mus musculus [14] = test: Toxicity in Swiss mouse xenografted with mouse H22 cells assessed as effect on lung weight at 0.75 mg/kg/day, iv administered via tail vein for 7 days; format: organism-based; details: in vivo, 168 h
HepG2 [15] = test: Induction of autophagy in human HepG2 cells assessed as increase in Beclin 1 levels at 2.5 to 7.5 um after 24 to 48 hrs by Western blot analysis; format: functional, cell-based
SMMC-7721 [16] = test: Induction of autophagy in human SMMC7721 cells assessed as downregulation of p62 expression level up to 10 uM after 24 to 48 hrs by Western blot analysis; format: functional, cell-based
HepG2 [17] = test: Induction of ROS generation in human HepG2 cells at 2.5 to 10 uM after 24 hrs by H2DCFDA staining-based flow cytometry; format: functional, cell-based
CT26 [18] = test: Antiproliferative activity against mouse CT26 cells after 48 hrs by MTT assay; format: functional, cell-based; details: CT26, 48 h
SMMC-7721 [19] = test: Induction of autophagy in human SMMC7721 cells assessed as increase in LC3-2 levels in presence of antioxidant NAC by Western blot analysis; format: functional, cell-based
HepG2 [20] = test: Induction of autophagy in human HepG2 cells assessed as upregulation of ATG7 expression level up to 10 uM after 24 to 48 hrs by Western blot analysis; format: functional, cell-based
SMMC-7721 [21] = test: Induction of autophagy in human SMMC7721 cells assessed as upregulation of ATG7 expression level up to 10 uM after 24 to 48 hrs by Western blot analysis; format: functional, cell-based
HepG2 [22] = test: Downregulation of MMP9 protein expression in human HepG2 cells after 24 to 48 hrs by Western blot analysis; format: functional, cell-based
SMMC-7721 [23] = test: Induction of autophagy in human SMMC7721 cells up to 10 uM after 48 hrs in presence of antioxidant NAC by MDC staining-based flow cytometry; format: functional, cell-based
Mus musculus [24] = test: Toxicity in Swiss mouse xenografted with mouse H22 cells assessed as effect on liver weight at 0.75 mg/kg/day, iv administered via tail vein for 7 days; format: organism-based; details: in vivo, 168 h
SMMC-7721 [25] = test: Induction of ROS generation in human SMMC7721 cells at 2.5 to 10 uM after 24 hrs by H2DCFDA staining-based flow cytometry; format: functional, cell-based
SMMC-7721 [26] = test: Induction of autophagy in human SMMC7721 cells assessed as decrease in p62 levels in presence of antioxidant NAC by Western blot analysis; format: functional, cell-based
SMMC-7721 [27] = test: Downregulation of beta-catenin protein expression in human SMMC7721 cells after 24 to 48 hrs by Western blot analysis; format: functional, cell-based
MDA-MB-231 = test: Antiproliferative activity against human MDA-MB-231 cells after 48 hrs by MTT assay; format: functional, cell-based; details: MDA-MB-231, 48 h
Mus musculus [28] = test: Toxicity in Swiss mouse implanted with mouse H22 cells assessed as effect on heart weight at 0.75 mg/kg/day, iv administered via tail vein for 7 days; format: organism-based; details: in vivo, 168 h
HepG2 [29] = test: Induction of autophagy in human HepG2 cells up to 10 uM after 48 hrs by MDC staining-based flow cytometry; format: functional, cell-based
HepG2 [30] = test: Downregulation of beta-catenin protein expression in human HepG2 cells after 24 to 48 hrs by Western blot analysis; format: functional, cell-based
HepG2 [31] = test: Induction of ROS generation in human HepG2 cells at 10 uM after 24 hrs in presence of antioxidant NAC by H2DCFDA staining-based flow cytometry; format: functional, cell-based
H22 [32] = test: Antiproliferative activity against mouse H22 cells after 48 hrs by MTT assay; format: functional, cell-based; details: H22, 48 h
HepG2 [33] = test: Induction of autophagy in human HepG2 cells assessed as increase in LC3-2 levels after 24 to 48 hrs by Western blot analysis; format: functional, cell-based
SMMC-7721 [34] = test: Induction of autophagy in human SMMC7721 cells assessed as increase in LC3-2 levels after 24 to 48 hrs by Western blot analysis; format: functional, cell-based
HepG2 [35] = test: Antimigratory activity in human HepG2 cells incubated for 24 to 48 hrs in presence of autophagy inhibitor 3-MA by cell wound scratch assay; format: functional, cell-based
Mus musculus [36] = test: Toxicity in Swiss mouse implanted with mouse H22 cells assessed as effect on body weight at 0.75 mg/kg/day, iv administered via tail vein for 7 days; format: organism-based; details: in vivo, 168 h
H22 [37] = test: Antitumor activity against mouse H22 cells implanted in Swiss mouse assessed as inhibition of lung metastasis at 0.75 mg/kg/day, iv administered via tail vein for 7 days relative to control; format: functional; details: 168 h
HepG2 [38] = test: Induction of autophagy in human HepG2 cells assessed as increase in LC3-2 levels in presence of antioxidant NAC by Western blot analysis; format: functional, cell-based
HepG2 [39] = test: Induction of autophagy in human HepG2 cells up to 10 uM after 48 hrs in presence of antioxidant NAC by MDC staining-based flow cytometry; format: functional, cell-based
SMMC-7721 [40] = test: Induction of autophagy in human SMMC7721 cells up to 10 uM after 48 hrs by MDC staining-based flow cytometry; format: functional, cell-based
H22 [41] = test: Antitumor activity against mouse H22 cells implanted in Swiss mouse assessed as tumor growth inhibition at 0.75 mg/kg/day, iv administered via tail vein for 7 days relative to control; format: functional; details: 168 h, read-out: TGI
HepG2 [42] = test: Induction of autophagy in human HepG2 cells assessed as downregulation of p62 expression level up to 10 uM after 24 to 48 hrs by Western blot analysis; format: functional, cell-based
HT-29 = test: Antiproliferative activity against human HT-29 cells after 48 hrs by MTT assay; format: functional, cell-based; details: HT-29, 48 h
HepG2 [43] = test: Induction of autophagy in human HepG2 cells assessed as upregulation of ATG5 expression level up to 10 uM after 24 to 48 hrs by Western blot analysis; format: functional, cell-based
SMMC-7721 [44] = test: Antiproliferative activity against human SMMC7721 cells after 48 hrs in presence of antioxidant NAC by MTT assay; format: functional, cell-based
SMMC-7721 [45] = test: Induction of autophagy in human SMMC7721 cells assessed as increase in Beclin 1 levels at 2.5 to 7.5 um after 24 to 48 hrs by Western blot analysis; format: functional, cell-based
SMMC-7721 [46] = test: Downregulation of MMP9 protein expression in human SMMC7721 cells after 24 to 48 hrs by Western blot analysis; format: functional, cell-based
[47] = Stability of the compound after 48 hrs by 1H NMR spectroscopic method; format: physicochemical
Mus musculus [48] = test: Toxicity in Swiss mouse implanted with mouse H22 cells assessed as effect on quality of life at 0.75 mg/kg/day, iv administered via tail vein for 7 days; format: organism-based; details: in vivo, 168 h
HepG2 [49] = test: Antiproliferative activity against human HepG2 cells after 48 hrs in presence of antioxidant NAC by MTT assay; format: functional, cell-based

## CCNCCCNCCCCNCCCN1C(=O)c2cccc3cccc(c23)C1=O
HepG2 [1]
  IC50: 5.22 µM
HCT-116
  IC50: 5.94 µM
K562
  IC50: 14.8 µM
SMMC-7721 [2]
  IC50: 11 µM

## CCCNCCCNCCCNCCCN1C(=O)c2cccc3cccc(c23)C1=O
HepG2 [1]
  IC50: 9.98 µM
HCT-116
  IC50: 7.96 µM
K562
  IC50: 10.2 µM
SMMC-7721 [2]
  IC50: 11.2 µM

## Cl.Cl.Cl.O=C1c2cccc3cccc(c23)C(=O)N1CCCNCCCNCCCNC1CC1
SMMC-7721 [3]
  inhibition: Active
HepG2 [4]
  Activity: inactive
HepG2 [5]
  Activity: Dose-dependent effect
[6]
  Stability: Stable
CT26 [7]
  inhibition: Active
HepG2 [8]
  inhibition: Active
SMMC-7721 [9]
  Activity: Dose-dependent effect
Mus musculus [10]
  Activity: Non-Toxic
MCF7
  IC50: 7.47 µM
SMMC-7721 [11]
  Activity: Active
SMMC-7721 [12]
  Activity: inactive
Mus musculus [13]
  Activity: Non-Toxic
Mus musculus [14]
  Activity: Non-Toxic
HepG2 [15]
  Activity: Active
SMMC-7721 [16]
  Activity: Active
HepG2 [17]
  Activity: Active
CT26 [18]
  IC50: 9.04 µM
SMMC-7721 [19]
  Activity: inactive
HepG2 [20]
  Activity: Active
SMMC-7721 [21]
  Activity: Active
HepG2 [22]
  Activity: Dose-dependent effect
HepG2 [1]
  IC50: 6.34 µM
SMMC-7721 [23]
  Activity: inactive
Mus musculus [24]
  Activity: Non-Toxic
SMMC-7721 [25]
  Activity: Active
SMMC-7721 [26]
  Activity: inactive
SMMC-7721 [27]
  Activity: Dose-dependent effect
MDA-MB-231
  IC50: 5.14 µM
Mus musculus [28]
  Activity: Non-Toxic
HCT-116
  IC50: 5.28 µM
K562
  IC50: 4.67 µM
HepG2 [29]
  Activity: Active
HepG2 [30]
  Activity: Dose-dependent effect
HepG2 [31]
  Activity: inactive
H22 [32]
  IC50: 7.49 µM
HepG2 [33]
  Activity: Dose-dependent effect
SMMC-7721 [34]
  Activity: Dose-dependent effect
HepG2 [35]
  Activity: Active
Mus musculus [36]
  Activity: Non-Toxic
H22 [37]
  inhibition in vivo at 0.75 mg/kg/day: 54.4%
HepG2 [38]
  Activity: inactive
HepG2 [39]
  Activity: inactive
SMMC-7721 [40]
  Activity: Active
SMMC-7721 [2]
  IC50: 5.13 µM
H22 [41]
  inhibition in vivo at 0.75 mg/kg/day: 68.3%
HepG2 [42]
  Activity: Active
HT-29
  IC50: 8.18 µM
HepG2 [43]
  Activity: Active
SMMC-7721 [44]
  Activity: inactive
SMMC-7721 [45]
  Activity: Active
SMMC-7721 [46]
  Activity: Dose-dependent effect
[47]
  Stability: Stable
Mus musculus [48]
  Activity: Non-Toxic
HepG2 [49]
  Activity: inactive
